The values below come from patent US20240024291A1, “Uses of Dihydroorotate Dehydrogenase Inhibitors” (University of Maryland, Baltimore, priority 2022, published 2024).

One assay relates to Mayo 6. As to the kind of experiment: Approved Oncology Drugs Set screen alone and combined with DHODHi. As to conditions: for Alone (growth, drug alone): Mayo 6, drug alone; for Combination (growth, drug combined with DHODHi): Mayo 6, drug combined with DHODHi (10 μM).
Another assay has as its system Mayo 39 neurospheres. Briefly: Sorafenib and DHODHi combination, SynergyFinder. As to conditions: Mayo 39 GBMs. It is filed as cell-based, human.
A further assay concerns Mayo 6 neurospheres. As to the kind of experiment: Sorafenib and DHODHi combination, SynergyFinder.
In assay [1] the test system is EGFRviii expressing 08-387 and 913 glioblastoma cells. As to the kind of experiment: Gemcitabine sensitization assay (Alamar blue). Conditions: varying dosages of gemcitabine and 0.05 nM of compound 1. The format is cell-based, human. The method, then: Ten thousand 08-387 or 913 glioblastoma cells per well were seeded in a 96 well plate. […] Post 72 hr of treatment, cell viability was calculated on Alamar blue absorbance reading.
To further evaluate the potential role of EGFR in compound 1 resistance, the 913 and 08-387 neurosphere lines were transduced with lentiviruses encoding EGFRvIll or GFP (as control) and these neurospheres were challenged with a relatively high dose of 1 mM compound 1.
(In general: The colour change of resazurin is a common sign of viable cells or microbes.)

Consider `C=CC(=O)Nc1cc(Nc2nccc(-c3cn(C)c4ccccc34)n2)c(OC)cc1N(C)CCN(C)C` [Osimertinib, osimertinib], for which, in the assay with Mayo 6, the “Alone (growth, drug alone)” value was determined as 0.35 and the “Combination (growth, drug combined with DHODHi)” value is on record as 0.0001.

For `CNC(=O)c1cc(Oc2ccc(NC(=O)Nc3ccc(Cl)c(C(F)(F)F)c3)cc2)ccn1` [Sorafenib], the “sensitization to DHODHi by Sorafenib” value with Mayo 39 neurospheres was “moderately sensitized”; in the assay with Mayo 6 neurospheres (Mayo 6 GBMs, SynergyFinder) it was “moderately sensitized”. In the assay on Mayo 6 neurospheres (Mayo 6, Sorafenib in combination with DHODHi), the “most synergistic area score” value is given as 10.48.

With `Nc1ccn([C@@H]2O[C@H](CO)[C@@H](O)C2(F)F)c(=O)n1` [gemcitabine, reference compound], in assay [1], the “sensitivity of glioblastomas to gemcitabine” value is reported as “sensitive”.

Consider `CNC(=O)c1cc(Oc2ccc(NC(=O)Nc3ccc(Cl)c(C(F)(F)F)c3)c(F)c2)ccn1` [Regorafenib, regorafenib], for which, in the assay on Mayo 6, the “Alone (growth, drug alone)” value is given as 1.00 and the “Combination (growth, drug combined with DHODHi)” value worked out at 0.64.
